# Experiments:
# [1] = Aotus, 10 mg/kg/day oral x7
# [2] = system: FVO strain of P. falciparum; experiment: Efficacy in P. falciparum-challenged Aotus monkeys; format: in vivo, Plasmodium falciparum in Aotus lemurinus lemurinus
# AMRU1 strain of P. vivax = experiment: Efficacy in P. vivax-challenged Aotus monkeys; format: in vivo, Plasmodium vivax in Aotus lemurinus lemurinus; conditions: oral; for Outcome: Aotus
# Protocol: The P. berghei-mouse efficacy data were obtained from the WRAIR chemical information system (subcutaneous testing) or from recent tests conducted at AFRIMS, Thailand or at the University of Miami using a modified version of the Thompson test. Groups of five mice were inoculated through i.p. injection on day 0 (usually with 1×106 P. berghei-parasitized erythrocytes). The drugs in Table 1 were administered either subcutaneously or orally for three days (usually on days 3-5) at doses of 1.25-160 mg/kg in two to four fold increments. Cure was defined as survival until day 60 (subcutaneous dosing) or day 31 post-treatment (oral dosing). […] The minimum effective dose was the lowest dose level that cured at least one of five mice. The Aotus studies were performed according to Obaldia; Detection of Klebsiella pnuumoniae antibodies in Aotus l. lemurinus (Panamanian owl monkey) using an enzyme linked immunosorbent assay (ELIA) test; Lab Anim (25)133-141 (1991) and Obaldia et al., WR 238605, chloroquine, and their combinations as blood schizonticides against a chloroquine-resistant strain of Plasmodium vivax in Aotus monkeys; Am. J. Trop. Med. Hyg. (56)508-510 (1997), which are incorporated by reference, herein. Groups of two Aotus lemurinus 6 lemurinus of the karyotype VIII or IX (27) male and female monkeys with weights ranging from 742-970 g were inoculated with 5×10^6 parasites of either the FVO strain of P. falciparum or the AMRU1 strain of P. vivax. Both of these strains are chloroquine resistant. […] Monkeys were examined and thick Giemsa-stained blood smears were prepared and enumerated daily (17) to monitor the course of infection. […] In some instances, a high dose of the test drug was used to retreat monkeys instead of the mefloquine rescue. Monkeys are considered cured if they are parasite free 90 days post treatment. […] Plasma samples were taken from the monkeys in some studies for quantification of metabolites. Additional blood samples were taken as appropriate for complete blood counts and serum chemistry. Research was conducted in compliance with the Animal Welfare Act and other federal statutes and regulations relating to animals and experiments involving animals and adheres to principles stated in the Guide for the Care and Use of Laboratory Animals, NRC Publication, 1996 edition (34).
smiles,measurement,setting,value
CCCCN(CCCC)CC(O)c1cc(-c2ccc(Cl)cc2)nc2cc(Cl)c(C)cc12 (centres unmarked) [WR069878],Mean peak concentration,[1],65 ng/mL
same,Plasma conc on day 1 (ng/ml) 2 h,"[1]; day 1, 2 h",38 ng/mL
same,Plasma conc on day 1 (ng/ml) 24 h,"[1]; day 1, 24 h",16 ng/mL
same,Plasma conc. on day 7 (ng/ml) 2 h,"[1]; day 7, 2 h",91 ng/mL
same,Plasma conc. on day 7 (ng/ml) 24 h,"[1]; day 7, 24 h",40 ng/mL
same,Outcome in Aotus,"[2]; 10 mg/kg/day x7 oral, groups of two, Cure = parasite free 90 days, R = average day of recrudescence, Failure = rescued with mefloquine",Cures and Cure
same,Outcome,"[2]; Aotus, oral, 10 mg/kg/day x 7 days, primary treatment",Cure
same,Outcome,"AMRU1 strain of P. vivax; 0.625 mg/kg/day x 3 days, primary treatment",Failure
same,Outcome,"AMRU1 strain of P. vivax; 2.5 mg/kg/day x 3 days, primary treatment",Failure
same,Outcome,"AMRU1 strain of P. vivax; 10 mg/kg/day x 3 days, primary treatment, number in brackets = days before recrudescence, 10 mg/kg/day",Clear (7) and Cure
same,Outcome,"AMRU1 strain of P. vivax; 20 mg/kg/day x 1 day, retreatment, one monkey per line, number in brackets = days before recrudescence, 20 mg/kg/day",Cure and Clear (8)
same,Outcome,"AMRU1 strain of P. vivax; 40 mg/kg/day x 3 days, retreatment",Cure
same,Outcome,"AMRU1 strain of P. vivax; 80 mg/kg/day x 1 day, retreatment, number in brackets = days before recrudescence, 80 mg/kg/day",Clear (11) and Cure
same,Outcome in P. vivax infections,AMRU1 strain of P. vivax; three day regimen,cures P. vivax infections
